Columns and labels:
[1] = In vitro dissolution of UPA from gelatin gel capsules (paddle device, European Pharmacopoeia §2.9.3, 900 ml); assay type: physicochemical; details: 30 mg UPA capsule, 900 ml gastric pH buffer + 0.1% SDS, 37°C, 50 rpm, mean of 3
Method: The in vitro dissolution test can be carried out using any commercially available device comprising paddles. Example 1 hereinafter presents implementing conditions for determining the in vitro dissolution rate of a comicronizate according to the invention. Briefly, an amount of comicronizate representing 30 mg of active ingredient is placed in a gelatin gel capsule. This gel capsule is then placed in 900 ml of a medium buffered at gastric pH, comprising 0.1% of SDS, at 37±0.5° C., and subjected to stirring at 50 revolutions per minute (rpm) (speed of rotation of the paddles of the dissolution device).
For each comicronizate obtained, hard gelatin gel capsules containing an amount of comicronizate corresponding to 30 mg of UPA per capsule were prepared. The studies of in vitro dissolution of UPA as comicronizate were carried out using these capsules according to the European Pharmacopoeia in §2.9.3, using a paddle dissolution device. For each comicronizate, a gel capsule containing said comicronizate was placed in a bowl of the dissolution device containing 900 ml of a dissolution medium. The dissolution medium is an aqueous solution buffered at gastric pH and comprising 0.1% by weight of SDS. The conditions for carrying out the in vitro dissolutions are the following: • Paddle rotation speed: 50 revolutions per minute (rpm) • Temperature: 37° C.±0.5° C.
The dissolution of the UPA was monitored by spectrophotometry.
By way of control experiment, a gelatin gel capsule containing 30 mg of ulipristal acetate micronized alone (i.e. UPA micronized in the absence of any co-micronization excipient) was used.
For each comicronizate, the dissolution experiment was reproduced 3 times. […]

[2] = Pharmacokinetic study in rats (plasma UPA by LC/MS/MS); assay type: in vivo; details: female, OFA(SD), rat, 4 mg UPA per kg, powder into the stomach, pooled plasma
Method: The pharmacokinetic study was carried out on female OFA(SD) rats weighing between 0.206 and 0.251 kg. The animals were deprived of food for 16 hours before the administration of the samples. The animals were placed in cages, the temperature of which was maintained between 20 and 25° C.; the day/night cycles were 12 h each (6 am-6 pm) and the air was conditioned using a ventilation system.
The samples tested are the following: • Comicronizate of ulipristal acetate/SDS, 1/1 ratio • Powder of ulipristal acetate micronized in the absence of any excipient (UPA micronized alone)
A predetermined amount of powder was administered by means of an oesophageal tube using a cannula. The powder was introduced into the stomach of each animal using a catheter. The dose administered corresponds to 4 mg of ulipristal acetate per kg.
Blood samples of 300 μl were taken from the (left or right) jugular of the rats. In order to avoid excessively high blood sampling, the rats were divided into 3 groups of 6 rats as follows:
The samples were collected on heparin tubes and then centrifuged within the hour for 7-8 min at 1600 g at 4° C. At each sampling time, the plasma of the 6 rats of the group is “pooled”.
The ulipristal acetate was assayed by LC/MS/MS under the following conditions: • Mobile phase: Methanol/distilled water (70/30, V/V)+1% acetic acid • Column: BDS Hypersil phenyl, 100×2.1 mm, 5 μm • Elution mode: isocratic • flow rate: 0.400 ml/min • Injection volume: 10.0 μl • Needle cleaning liquid: Acetonitrile/isopropanol/acetone (40/40/20, V/V/V) 2. Results

[3] = chronic administration, 5 mg or 10 mg per day; cited from earlier work
[4] = single dose of 30 mg within 120 hours following unprotected intercourse; cited from earlier work

Structure (SMILES) | Percentage of UPA released relative to initial amount per gel capsule ([1]; t=0 min) [%] | Percentage of UPA released relative to initial amount per gel capsule ([1]; t=1 min) [%] | Percentage of UPA released relative to initial amount per gel capsule ([1]; t=5 min) [%] | Percentage of UPA released relative to initial amount per gel capsule ([1]; t=7.5 min) [%] | Percentage of UPA released relative to initial amount per gel capsule ([1]; t=10 min) [%] | Percentage of UPA released relative to initial amount per gel capsule ([1]; t=15 min) [%] | Percentage of UPA released relative to initial amount per gel capsule ([1]; t=20 min) [%] | Percentage of UPA released relative to initial amount per gel capsule ([1]; t=20 min, listed as Micronized UPA (in the absence of excipient)) [%] | Percentage of UPA released relative to initial amount per gel capsule ([1]; t=20 min, listed as ulipristal acetate which has been micronized in the absence of excipient) | Percentage of UPA released relative to initial amount per gel capsule ([1]; t=30 min) [%] | Percentage of UPA released relative to initial amount per gel capsule ([1]; t=45 min) [%] | Percentage of UPA released relative to initial amount per gel capsule ([1]; t=60 min) [%] | Tmax ([2]; oral) [h] | AUC(0-inf) ([2]; po, 4 mg/kg) [ng·h/mL] | AUC(0-t) ([2]; po, 4 mg/kg) [ng·h/mL] | Cmax ([2]; po, 4 mg/kg) [ng/mL] | Effect on symptoms associated with uterine fibromas [3] | Emergency contraceptive effect [4]
CC(=O)O[C@]1(C(C)=O)CCC2C3CCC4=CC(=O)CCC4=C3[C@@H](c3ccc(N(C)C)cc3)C[C@@]21C (stereo partly drawn) [UPA micronized alone, 17α-acetoxy-11β-[4-(N,N-dimethylamino)-phenyl]-19-norpregna-4,9-diene-3,20-dione] | 0.0 | 0.0 | 5.5 | 15.00 | 22.30 | 30.00 | 34.30 | 34.30 | approximately 35% | 39.50 | 47.50 | 53.80 | 1.25 | 1380 | 1340 | 447 |  | 
CC(=O)O[C@]1(C(C)=O)CCC2C3CCC4=CC(=O)CCC4=C3[C@@H](c3ccc(N(C)C)cc3)C[C@@]21C (stereo partly drawn) [UPA, 17α-acetoxy-11β-[4-(N,N-dimethylamino)-phenyl]-19-norpregna-4,9-diene-3,20-dione] |  |  |  |  |  |  |  |  |  |  |  |  |  |  |  |  | significantly reduce the symptoms associated with uterine fibromas | makes it possible to prevent an unwanted pregnancy

From patent publication US9610293B2, “Co-micronization product comprising ulipristal acetate” (LABORATOIRE HRA-PHARMA, priority 2012, dated 2017)
